ChEMBL document CHEMBL4138123, “Design, synthesis and biological evaluation of novel pyrazolochalcones as potential modulators of PI3K/Akt/mTOR pathway and inducers of apoptosis in breast cancer cells” (Eur J Med Chem, 2017)

Key:
Type in all cases: functional
[1] = tested on: A549; assay: Cytotoxicity against human A549/ATCC cells assessed as growth inhibition after 48 hrs by sulforhodamine B assay; conditions: A549, 48 h
[2] = tested on: MDA-MB-231; assay: Cytotoxicity against human MDA-MB-231 cells assessed as growth inhibition after 48 hrs by sulforhodamine B assay; conditions: MDA-MB-231, 48 h
[3] = tested on: CCRF-CEM; assay: Cytotoxicity against human CCRF-CEM cells assessed as cell growth at 0.01 uM after 48 hrs by sulforhodamine B assay relative to control; conditions: read-out: Activity
[4] = tested on: SK-MEL-5; assay: Cytotoxicity against human SK-MEL-5 cells assessed as cell growth at 0.01 uM after 48 hrs by sulforhodamine B assay relative to control; conditions: SK-MEL-5, 48 h, read-out: Activity
[5] = tested on: U-251; assay: Cytotoxicity against human U251 cells assessed as cell growth at 0.01 uM after 48 hrs by sulforhodamine B assay relative to control; conditions: U-251, 48 h, read-out: Activity
[6] = tested on: SF-539; assay: Cytotoxicity against human SF539 cells assessed as cell growth at 0.01 uM after 48 hrs by sulforhodamine B assay relative to control; conditions: SF-539, 48 h, read-out: Activity
[7] = tested on: RPMI-8226; assay: Cytotoxicity against human RPMI8226 cells assessed as cell growth at 0.01 uM after 48 hrs by sulforhodamine B assay relative to control; conditions: RPMI-8226, 48 h, read-out: Activity
[8] = tested on: RXF 393; assay: Cytotoxicity against human RXF393 cells assessed as cell growth at 0.01 uM after 48 hrs by sulforhodamine B assay relative to control; conditions: RXF 393, 48 h, read-out: Activity
[9] = tested on: MDA-MB-231; assay: Cytotoxicity against human MDA-MB-231 cells assessed as cell growth at 0.01 uM after 48 hrs by sulforhodamine B assay relative to control; conditions: MDA-MB-231, 48 h, read-out: Activity
[10] = tested on: MDA-MB-468; assay: Cytotoxicity against human MDA-MB-468 cells assessed as cell growth at 0.01 uM after 48 hrs by sulforhodamine B assay relative to control; conditions: MDA-MB-468, 48 h, read-out: Activity
[11] = tested on: RPMI-8226; assay: Cytotoxicity against human RPMI8226 cells assessed as cell growth at 0.1 uM after 48 hrs by sulforhodamine B assay relative to control; conditions: RPMI-8226, 48 h, read-out: Activity
[12] = tested on: HOP-62; assay: Cytotoxicity against human HOP62 cells assessed as cell growth at 0.1 uM after 48 hrs by sulforhodamine B assay relative to control; conditions: HOP-62, 48 h, read-out: Activity
[13] = tested on: HCC 2998; assay: Cytotoxicity against human HCC2998 cells assessed as cell growth at 0.1 uM after 48 hrs by sulforhodamine B assay relative to control; conditions: HCC 2998, 48 h, read-out: Activity
[14] = tested on: SF-268; assay: Cytotoxicity against human SF268 cells assessed as cell growth at 0.1 uM after 48 hrs by sulforhodamine B assay relative to control; conditions: SF-268, 48 h, read-out: Activity
[15] = tested on: UACC-62; assay: Cytotoxicity against human UACC62 cells assessed as cell growth at 0.1 uM after 48 hrs by sulforhodamine B assay relative to control; conditions: UACC-62, 48 h, read-out: Activity
[16] = tested on: SK-OV-3; assay: Cytotoxicity against human SKOV3 cells assessed as cell growth at 0.1 uM after 48 hrs by sulforhodamine B assay relative to control; conditions: SK-OV-3, 48 h, read-out: Activity
[17] = tested on: MOLT-4; assay: Cytotoxicity against human MOLT4 cells assessed as cell growth at 1 uM after 48 hrs by sulforhodamine B assay relative to control; conditions: MOLT-4, 48 h, read-out: Activity
[18] = tested on: SR; assay: Cytotoxicity against human SR cells assessed as cell growth at 1 uM after 48 hrs by sulforhodamine B assay relative to control; conditions: read-out: Activity
[19] = tested on: NCI-H23; assay: Cytotoxicity against human NCI-H23 cells assessed as cell growth at 1 uM after 48 hrs by sulforhodamine B assay relative to control; conditions: NCI-H23, 48 h, read-out: Activity
[20] = tested on: NCI-H322M; assay: Cytotoxicity against human NCI-H322M cells assessed as cell growth at 1 uM after 48 hrs by sulforhodamine B assay relative to control; conditions: read-out: Activity
[21] = tested on: COLO 205; assay: Cytotoxicity against human COLO205 cells assessed as cell growth at 1 uM after 48 hrs by sulforhodamine B assay relative to control; conditions: COLO 205, 48 h, read-out: Activity
[22] = tested on: UACC-257; assay: Cytotoxicity against human UACC257 cells assessed as cell growth at 1 uM after 48 hrs by sulforhodamine B assay relative to control; conditions: UACC-257, 48 h, read-out: Activity
[23] = tested on: IGROV-1; assay: Cytotoxicity against human IGROV1 cells assessed as cell growth at 1 uM after 48 hrs by sulforhodamine B assay relative to control; conditions: IGROV-1, 48 h, read-out: Activity
[24] = tested on: DU-145; assay: Cytotoxicity against human DU145 cells assessed as cell growth at 1 uM after 48 hrs by sulforhodamine B assay relative to control; conditions: DU-145, 48 h, read-out: Activity
[25] = tested on: MDA-MB-231; assay: Cytotoxicity against human MDA-MB-231 cells assessed as cell growth at 1 uM after 48 hrs by sulforhodamine B assay relative to control; conditions: MDA-MB-231, 48 h, read-out: Activity
[26] = tested on: MDA-MB-468; assay: Cytotoxicity against human MDA-MB-468 cells assessed as cell growth at 1 uM after 48 hrs by sulforhodamine B assay relative to control; conditions: MDA-MB-468, 48 h, read-out: Activity
[27] = tested on: NCI-H226; assay: Cytotoxicity against human NCI-H226 cells assessed as cell growth at 10 uM after 48 hrs by sulforhodamine B assay relative to control; conditions: NCI-H226, 48 h, read-out: Activity
[28] = tested on: SF-539; assay: Cytotoxicity against human SF539 cells assessed as cell growth at 10 uM after 48 hrs by sulforhodamine B assay relative to control; conditions: SF-539, 48 h, read-out: Activity
[29] = tested on: OVCAR-3; assay: Cytotoxicity against human OVCAR3 cells assessed as cell growth at 10 uM after 48 hrs by sulforhodamine B assay relative to control; conditions: OVCAR-3, 48 h, read-out: Activity
[30] = tested on: MCF7; assay: Cytotoxicity against human MCF7 cells assessed as cell growth at 10 uM after 48 hrs by sulforhodamine B assay relative to control; conditions: MCF7, 48 h, read-out: Activity
[31] = tested on: HCT-15; assay: Cytotoxicity against human HCT15 cells assessed as cell growth at 100 uM after 48 hrs by sulforhodamine B assay relative to control; conditions: HCT-15, 48 h, read-out: Activity
[32] = tested on: SF-539; assay: Cytotoxicity against human SF539 cells assessed as cell growth at 100 uM after 48 hrs by sulforhodamine B assay relative to control; conditions: SF-539, 48 h, read-out: Activity
[33] = tested on: SK-MEL-5; assay: Cytotoxicity against human SK-MEL-5 cells assessed as cell growth at 100 uM after 48 hrs by sulforhodamine B assay relative to control; conditions: SK-MEL-5, 48 h, read-out: Activity
[34] = tested on: UACC-62; assay: Cytotoxicity against human UACC62 cells assessed as cell growth at 100 uM after 48 hrs by sulforhodamine B assay relative to control; conditions: UACC-62, 48 h, read-out: Activity
[35] = tested on: TK-10; assay: Cytotoxicity against human TK10 cells assessed as cell growth at 100 uM after 48 hrs by sulforhodamine B assay relative to control; conditions: TK-10, 48 h, read-out: Activity

Compound	LC50 (concentration giving 50% net cell kill) [1] [µM]	LC50 [2] [µM]	growth at 0.01 µM [3] [%]	growth at 0.01 µM [4] [%]	growth at 0.01 µM [5] [%]	growth at 0.01 µM [6] [%]	growth at 0.01 µM [7] [%]	growth at 0.01 µM [8] [%]	growth at 0.01 µM [9] [%]	growth at 0.01 µM [10] [%]	growth at 0.1 µM [11] [%]	growth at 0.1 µM [12] [%]	growth at 0.1 µM [13] [%]	growth at 0.1 µM [14] [%]	growth at 0.1 µM [15] [%]	growth at 0.1 µM [16] [%]	growth at 1 µM [17] [%]	growth at 1 µM [18] [%]	growth at 1 µM [19] [%]	growth at 1 µM [20] [%]	also measured
COc1ccc(-c2cc(/C=C/C(=O)c3cc(OC)c(OC)c(OC)c3)[nH]n2)cc1OC	62.4	55.4	97	101	99	95	97	103	98	98	85	80	100	93	98	87	69	5	87	82	GI50 [1]: 2.39 µM; TGI [1]: 9.34 µM; GI50 [2]: 2.02 µM; TGI [2]: 13.5 µM; growth at 1 µM [21]: 89%; growth at 1 µM [22]: 89%; growth at 1 µM [23]: 93%; growth at 1 µM [24]: 87%; growth at 1 µM [25]: 67%; growth at 1 µM [26]: 66%; growth at 10 µM [27]: -8%; growth at 10 µM [28]: -85%; growth at 10 µM [29]: -85%; growth at 10 µM [30]: -81%; growth at 100 µM [31]: -49%; growth at 100 µM [32]: -87%; growth at 100 µM [33]: -98%; growth at 100 µM [34]: -80%; growth at 100 µM [35]: -94%
COc1ccc(C(=O)/C=C/c2cc(-c3cc(OC)c(OC)c(OC)c3)n[nH]2)cc1	> 100	> 100	99	100	97	97	98	93	104	89	90	102	97	91	100	99	102	22	95	93	growth at 1 µM [21]: 94%; growth at 1 µM [22]: 87%; growth at 1 µM [23]: 101%; growth at 1 µM [24]: 76%; growth at 1 µM [25]: 81%; growth at 1 µM [26]: 68%; growth at 10 µM [27]: -59%; growth at 10 µM [28]: -92%; growth at 10 µM [29]: -72%; growth at 10 µM [30]: -64%; growth at 100 µM [31]: -33%; growth at 100 µM [32]: -92%; growth at 100 µM [33]: -93%; growth at 100 µM [34]: -48%; growth at 100 µM [35]: -20%
COc1ccc(-c2cc(/C=C/C(=O)c3ccc(N)cc3)[nH]n2)cc1OC	45.2	53.9	97	99	95	93	98	99	113	94	96	91	100	101	94	102	93	34	99	95	GI50 [1]: 2.75 µM; TGI [1]: 10.1 µM; GI50 [2]: 4.42 µM; TGI [2]: 17.2 µM; growth at 1 µM [21]: 98%; growth at 1 µM [22]: 96%; growth at 1 µM [23]: 100%; growth at 1 µM [24]: 97%; growth at 1 µM [25]: 98%; growth at 1 µM [26]: 77%; growth at 10 µM [27]: -13%; growth at 10 µM [28]: -73%; growth at 10 µM [29]: -56%; growth at 10 µM [30]: -6%; growth at 100 µM [31]: -71%; growth at 100 µM [32]: -92%; growth at 100 µM [33]: -94%; growth at 100 µM [34]: -86%; growth at 100 µM [35]: -98%
